Legend:
Assay in all cases: autophosphorylation, SDS-PAGE autoradiography
Format in all cases: biochemical
[1] = molecular target: T1, CC2874 lacking its C-terminal receiver domain (ΔREC) (Caulobacter vibrioides, UniProt Q9A4G0); settings: 500 µM ATP with [γ-32P]ATP; 5 mM MgCl2, pH 8.0, room temperature, 15 min; labelled compound
T1 construct: gene CC_2874; recombinant from E. coli BL21, Ni-NTA purified

CC0836 = molecular target: T2, CC0836 (Caulobacter vibrioides, UniProt Q9A9X5); settings: 500 µM ATP with [γ-32P]ATP; 5 mM MgCl2, pH 8.0, room temperature, 30 min; labelled compound
T2 construct: gene CC_0836; recombinant from E. coli BL21, Ni-NTA purified
T2 sequence (Q9A9X5 1-754): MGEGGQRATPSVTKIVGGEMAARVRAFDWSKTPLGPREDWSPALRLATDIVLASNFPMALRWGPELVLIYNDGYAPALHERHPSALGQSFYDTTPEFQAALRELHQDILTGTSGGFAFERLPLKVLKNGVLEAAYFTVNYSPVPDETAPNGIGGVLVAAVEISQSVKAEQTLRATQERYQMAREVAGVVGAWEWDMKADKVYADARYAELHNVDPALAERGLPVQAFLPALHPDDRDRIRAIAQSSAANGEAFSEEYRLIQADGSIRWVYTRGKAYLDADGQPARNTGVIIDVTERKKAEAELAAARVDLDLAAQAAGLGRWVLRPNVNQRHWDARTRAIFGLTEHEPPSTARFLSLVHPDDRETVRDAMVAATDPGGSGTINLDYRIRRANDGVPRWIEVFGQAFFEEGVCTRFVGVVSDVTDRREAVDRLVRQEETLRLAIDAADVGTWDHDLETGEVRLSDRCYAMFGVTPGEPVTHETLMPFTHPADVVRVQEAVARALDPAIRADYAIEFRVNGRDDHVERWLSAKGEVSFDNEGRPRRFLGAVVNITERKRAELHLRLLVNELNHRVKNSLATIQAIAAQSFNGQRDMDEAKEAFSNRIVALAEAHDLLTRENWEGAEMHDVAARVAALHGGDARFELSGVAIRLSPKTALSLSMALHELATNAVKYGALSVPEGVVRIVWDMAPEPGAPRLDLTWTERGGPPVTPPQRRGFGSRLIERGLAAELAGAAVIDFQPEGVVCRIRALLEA

CC3058 = molecular target: T3, CC3058 (Caulobacter vibrioides, UniProt Q9A3Z2); settings: 500 µM ATP with [γ-32P]ATP; 5 mM MgCl2, pH 8.0, room temperature, 30 min; labelled compound
T3 construct: gene CC_3058; recombinant from E. coli BL21, Ni-NTA purified
T3 sequence (Q9A3Z2 1-465): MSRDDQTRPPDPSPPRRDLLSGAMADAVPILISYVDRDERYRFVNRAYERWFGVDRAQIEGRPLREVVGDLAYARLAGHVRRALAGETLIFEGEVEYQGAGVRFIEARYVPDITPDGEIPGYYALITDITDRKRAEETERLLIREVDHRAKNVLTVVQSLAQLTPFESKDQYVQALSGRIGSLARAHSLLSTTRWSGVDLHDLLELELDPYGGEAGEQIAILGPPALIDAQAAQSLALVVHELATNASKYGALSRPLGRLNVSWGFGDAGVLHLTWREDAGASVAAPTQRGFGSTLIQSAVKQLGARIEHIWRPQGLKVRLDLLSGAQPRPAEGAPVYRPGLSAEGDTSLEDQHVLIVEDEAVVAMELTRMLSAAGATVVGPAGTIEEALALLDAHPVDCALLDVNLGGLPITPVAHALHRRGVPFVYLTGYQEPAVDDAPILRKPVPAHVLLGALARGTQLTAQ

CC3170 = molecular target: T4, CC3170 (Caulobacter vibrioides, UniProt Q9A3N2); settings: 500 µM ATP with [γ-32P]ATP; 5 mM MgCl2, pH 8.0, room temperature, 30 min; labelled compound
T4 construct: gene CC_3170; recombinant from E. coli BL21, Ni-NTA purified
T4 sequence (Q9A3N2 1-473): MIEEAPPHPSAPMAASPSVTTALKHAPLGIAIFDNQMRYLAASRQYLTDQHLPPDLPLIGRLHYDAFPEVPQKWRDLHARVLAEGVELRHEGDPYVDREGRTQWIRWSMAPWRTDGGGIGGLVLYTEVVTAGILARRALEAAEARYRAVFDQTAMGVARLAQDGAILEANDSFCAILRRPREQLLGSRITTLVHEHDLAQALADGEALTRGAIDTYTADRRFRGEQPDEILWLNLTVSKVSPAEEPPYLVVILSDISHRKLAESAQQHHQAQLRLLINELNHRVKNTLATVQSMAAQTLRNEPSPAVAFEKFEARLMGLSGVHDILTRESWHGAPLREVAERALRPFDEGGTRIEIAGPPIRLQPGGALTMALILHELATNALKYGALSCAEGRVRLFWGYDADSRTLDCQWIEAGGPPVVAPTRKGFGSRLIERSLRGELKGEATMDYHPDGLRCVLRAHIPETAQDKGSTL

CC1683 = molecular target: T5, CC1683 (Caulobacter vibrioides, UniProt Q9A7N7); settings: 500 µM ATP with [γ-32P]ATP; 5 mM MgCl2, pH 8.0, room temperature, 30 min; labelled compound
T5 construct: gene CC_1683; recombinant from E. coli BL21, Ni-NTA purified
T5 sequence (Q9A7N7 1-555): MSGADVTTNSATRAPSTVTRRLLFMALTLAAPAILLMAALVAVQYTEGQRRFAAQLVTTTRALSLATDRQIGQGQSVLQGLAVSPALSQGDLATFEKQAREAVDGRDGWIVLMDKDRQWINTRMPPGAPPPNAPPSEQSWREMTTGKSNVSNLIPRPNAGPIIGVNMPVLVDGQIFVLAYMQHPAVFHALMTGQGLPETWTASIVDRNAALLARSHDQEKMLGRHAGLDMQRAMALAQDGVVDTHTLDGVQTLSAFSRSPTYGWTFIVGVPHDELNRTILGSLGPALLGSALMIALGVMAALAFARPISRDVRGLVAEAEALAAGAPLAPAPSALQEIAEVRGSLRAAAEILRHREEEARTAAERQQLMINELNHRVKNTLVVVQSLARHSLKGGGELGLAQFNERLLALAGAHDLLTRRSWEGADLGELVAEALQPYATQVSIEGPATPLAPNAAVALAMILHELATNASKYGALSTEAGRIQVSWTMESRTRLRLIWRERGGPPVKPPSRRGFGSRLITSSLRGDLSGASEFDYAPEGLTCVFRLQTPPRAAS

CC2554 = molecular target: T6, CC2554 (Caulobacter vibrioides, UniProt Q9A599); settings: 500 µM ATP with [γ-32P]ATP; 5 mM MgCl2, pH 8.0, room temperature, 15 min; labelled compound
T6 construct: gene CC_2554; recombinant from E. coli BL21, Ni-NTA purified
T6 sequence (Q9A599 1-338): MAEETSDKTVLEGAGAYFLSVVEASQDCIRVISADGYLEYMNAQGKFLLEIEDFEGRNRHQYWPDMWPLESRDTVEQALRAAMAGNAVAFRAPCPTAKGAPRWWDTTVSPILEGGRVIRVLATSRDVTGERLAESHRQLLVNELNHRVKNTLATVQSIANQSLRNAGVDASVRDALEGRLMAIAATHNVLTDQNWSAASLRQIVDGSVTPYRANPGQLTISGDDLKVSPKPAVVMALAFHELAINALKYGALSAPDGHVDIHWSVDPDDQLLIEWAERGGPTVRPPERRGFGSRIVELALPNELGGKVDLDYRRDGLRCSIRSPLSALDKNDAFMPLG

CC2874 = molecular target: T7, CC2874 (Caulobacter vibrioides, UniProt Q9A4G0); settings: 500 µM ATP with [γ-32P]ATP; 5 mM MgCl2, pH 8.0, room temperature, 15 min; labelled compound
T7 construct: gene CC_2874; recombinant from E. coli BL21, MBP-tagged (partly cleaved), Ni-NTA purified
T7 sequence (Q9A4G0 1-794): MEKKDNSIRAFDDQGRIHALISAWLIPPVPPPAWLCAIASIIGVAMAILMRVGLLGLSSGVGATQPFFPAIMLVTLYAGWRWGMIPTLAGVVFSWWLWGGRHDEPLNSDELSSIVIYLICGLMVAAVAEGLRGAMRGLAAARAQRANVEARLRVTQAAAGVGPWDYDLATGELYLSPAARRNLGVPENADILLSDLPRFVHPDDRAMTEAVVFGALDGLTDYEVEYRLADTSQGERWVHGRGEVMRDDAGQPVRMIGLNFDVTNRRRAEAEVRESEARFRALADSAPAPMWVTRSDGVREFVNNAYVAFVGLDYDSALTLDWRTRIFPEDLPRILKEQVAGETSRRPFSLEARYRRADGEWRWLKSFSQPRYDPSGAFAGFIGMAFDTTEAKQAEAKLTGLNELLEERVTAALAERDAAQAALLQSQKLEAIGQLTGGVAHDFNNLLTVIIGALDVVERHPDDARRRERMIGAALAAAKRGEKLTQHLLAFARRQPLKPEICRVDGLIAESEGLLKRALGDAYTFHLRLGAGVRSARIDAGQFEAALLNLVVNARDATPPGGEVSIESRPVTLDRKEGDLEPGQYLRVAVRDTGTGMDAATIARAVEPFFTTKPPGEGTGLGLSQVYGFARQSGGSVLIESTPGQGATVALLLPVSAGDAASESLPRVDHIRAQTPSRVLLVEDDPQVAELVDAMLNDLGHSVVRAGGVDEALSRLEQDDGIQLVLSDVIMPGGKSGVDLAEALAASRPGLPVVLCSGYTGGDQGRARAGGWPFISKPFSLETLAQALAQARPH

SMILES: Nc1ncnc2c1ncn2[C@@H]1O[C@H](COP(=O)(O)OP(=O)(O)OP(=O)(O)O)[C@@H](O)[C@H]1O [ATP]
- autophosphorylation, SDS-PAGE autoradiography [1]: this part of the kinase is not required for autophosphorylation and phosphotransfer to MrrA
- autophosphorylation, SDS-PAGE autoradiography (CC0836): Purified kinases CC0836, CC1683, CC3058, and CC3170 were mixed with ATP
- autophosphorylation, SDS-PAGE autoradiography (CC3058): Purified kinases CC0836, CC1683, CC3058, and CC3170 were mixed with ATP
- autophosphorylation, SDS-PAGE autoradiography (CC3170): Purified kinases CC0836, CC1683, CC3058, and CC3170 were mixed with ATP
- autophosphorylation, SDS-PAGE autoradiography (CC1683): Purified kinases CC0836, CC1683, CC3058, and CC3170 were mixed with ATP
- autophosphorylation, SDS-PAGE autoradiography (CC2554): Autophosphorylation of histidine kinases CC2554 (left) and CC2874 (right) and phosphotransfer to MrrA.
- autophosphorylation, SDS-PAGE autoradiography (CC2874): Autophosphorylation of histidine kinases CC2554 (left) and CC2874 (right) and phosphotransfer to MrrA.
